Holding throughout (experiment): DTP human tumour cell line panel, 48 h
For assay [1], the system named is RXF 393.
For assay [2], the system named is LOX IMVI.
In assay [3] the test system is U-251.
The subject of assay [4] is RPMI-8226.
Assay [5] concerns NCI-H23.
The subject of assay [6] is SF-268.
In assay [7] the test system is SF-539.
For assay [8], the system named is HCT-116.
Assay [9] deals with NCI-H460.
The subject of assay [10] is HL-60.
The subject of assay [11] is M19-MEL.
The subject of assay [12] is SNB-75.
Assay [13] concerns OVCAR-8.
Assay [14] relates to OVCAR-5.
In assay [15] the test system is HCC 2998.
In assay [16] the test system is T47D.
In assay [17] the test system is SR.
Assay [18] concerns SN12C.
In assay [19] the test system is HOP-62.
The subject of assay [20] is BT-549.

SMILES strings stand for the structures.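 Following 48 hours of exposure in 96-well plates, responses at five concentrations were used to interpolate endpoints linearly. At the GI50, growth is halved.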 Calls of active or inactive are those of the source. Cut-off read from the data, not from the text of the source: active = GI50 up to about 1.1 µM and inactive = higher.

For the molecule `NC(=O)CN(CC(N)=O)C(N)=O`, the GI50 in [1], in assay [2], in [3], in assay [4], in assay [5] and in assay [6] was > 100 µM (inactive) in each case. Also, the GI50 (as a rule, the concentration that inhibits growth by half) in [7] is > 100 µM (inactive); in assay [8] it was > 100 µM (inactive); in assay [9], > 100 µM (inactive); in assay [10], > 100 µM (inactive); in assay [11], > 100 µM (inactive); in assay [12], 23 µM (inactive). Besides, the GI50 in [13] and in assay [14] was > 100 µM (inactive) in each case.
As to `c1ccc2c(c1)c1c(c3ccccc32)CN2CCCC2C1` (centres undefined), the GI50 is 2.34 µM (inactive) in assay [1]; 3.35 µM (inactive) in [2]; 3.4 µM (inactive) in assay [3]; 4.22 µM (inactive) in assay [15]; 4.24 µM (inactive) in assay [4]; 2.94 µM (inactive) in assay [5]. For the same molecule, the GI50 in [6] was 2.92 µM (inactive); in [7], 2.9 µM (inactive); in assay [16] it was 1.5 µM (inactive); in assay [8], 3.17 µM (inactive); in [9], 3.03 µM (inactive); in assay [17], 4.89 µM (inactive). Moreover, the GI50 was 2.7 µM (inactive) in [18]; 1.41 µM (inactive) in assay [10]; 3.01 µM (inactive) in [12]; 2.79 µM (inactive) in [19]; 3.17 µM (inactive) in assay [13]; 5.05 µM (inactive) in assay [20]. In addition, the GI50 in assay [14] was 3.94 µM (inactive).
With `COC1=C2C[C@](OC)(C#CC=CC#CC2O)CC1(C)C` (some centres undefined), the GI50 was > 100 µM (inactive) in [1]; > 100 µM (inactive) in assay [2]; > 100 µM (inactive) in [3]; 37.3 µM (inactive) in [15]; 95.5 µM (inactive) in assay [4]; > 100 µM (inactive) in [5]. The GI50 in [6] is > 100 µM (inactive); in [7], > 100 µM (inactive); in [16] it was > 100 µM (inactive); in [8], > 100 µM (inactive); in assay [9], > 100 µM (inactive); in assay [17] it was 56.4 µM (inactive). The GI50 in [18] was > 100 µM (inactive); in assay [10], 55 µM (inactive); in assay [12], > 100 µM (inactive); in [19], > 100 µM (inactive); in [13], > 100 µM (inactive); in [20], > 100 µM (inactive). In assay [14], the GI50 was > 100 µM (inactive).
As to `Cc1ccc(-c2c(-c3ccccc3)[nH]c(C)c2C(=O)ONC(=O)c2ccccc2)cc1`, the GI50 was 1.87 µM (inactive) in [1]; 1.75 µM (inactive) in [2]; 1.84 µM (inactive) in [3]; 15.5 µM (inactive) in assay [15]; 3.46 µM (inactive) in assay [4]; 5.53 µM (inactive) in assay [5]. The GI50 in assay [6] was 2.36 µM (inactive); in [7], 2.97 µM (inactive); in assay [16] it was 4.6 µM (inactive); in assay [8] it was 2.48 µM (inactive); in [9], 2.17 µM (inactive); in [17], 1.66 µM (inactive). Also, the GI50 in assay [18] was 2.53 µM (inactive); in [10] it was 0.673 µM (active); in assay [12] it was 1.92 µM (inactive); in [19], 1.99 µM (inactive); in assay [13], 4.62 µM (inactive); in assay [20] it was 3.52 µM (inactive). In addition, in assay [14], the GI50 was 8.65 µM (inactive).
For `COc1ccc(C2CC(c3c(C)nn(-c4ccccc4)c3-c3ccc(C)cc3O)=NN2c2ccccc2)cc1` (centres undefined), the GI50 in assay [1] was 8.13 µM (inactive); in [2] it was > 30.1 µM (inactive); in [3], 33.3 µM (inactive); in assay [15], 12 µM (inactive); in assay [4], 4.81 µM (inactive); in [5], 3.79 µM (inactive). The GI50 in assay [6] was > 73.6 µM (inactive); in assay [7], > 78.5 µM (inactive); in assay [16], 9.57 µM (inactive); in assay [8], 12.7 µM (inactive); in assay [9] it was 3.42 µM (inactive); in assay [17] it was 13.3 µM (inactive). For the same molecule, the GI50 in assay [18] was > 100 µM (inactive); in assay [10], 9.27 µM (inactive); in assay [12] it was 5.04 µM (inactive); in assay [19], > 100 µM (inactive); in [13], 20.4 µM (inactive); in [20], 55.3 µM (inactive). Moreover, the GI50 in assay [14] was > 35.1 µM (inactive).
As to `C=C1C(=O)O[C@@H]2/C=C(/C)[C@@H](OC(C)=O)C/C=C(\C)C(O)[C@@H](OC(=O)/C(C)=C\C)C12` (some centres undefined), the GI50 was 26.8 µM (inactive) in assay [1]; 14.6 µM (inactive) in assay [2]; 41.1 µM (inactive) in assay [3]; 24.6 µM (inactive) in [15]; 21.6 µM (inactive) in assay [4]; 41.9 µM (inactive) in [5]. The GI50 in assay [6] is 38.3 µM (inactive); in [7], 34.4 µM (inactive); in [16], 19.6 µM (inactive); in assay [8] it was 16.3 µM (inactive); in assay [9] it was 39 µM (inactive); in assay [17], 17.3 µM (inactive). Further, the GI50 in assay [18] is 21 µM (inactive); in assay [10], 14.8 µM (inactive); in assay [12] it was 79.8 µM (inactive); in [19], > 100 µM (inactive); in assay [13], 26.8 µM (inactive); in assay [20], 20.1 µM (inactive). For the same molecule, the GI50 in assay [14] is 58.2 µM (inactive).
As to `O=c1c2cc([N+](=O)[O-])ccc2n(Cc2ccccc2)n1Cc1ccccc1`, the GI50 in assay [1] is 24.9 µM (inactive); in [2] it was 9.2 µM (inactive); in assay [3] it was 15.1 µM (inactive); in [15], 17.9 µM (inactive); in assay [4] it was 7.41 µM (inactive); in assay [5], 13.1 µM (inactive). Also, the GI50 was 24.4 µM (inactive) in assay [6]; 19.2 µM (inactive) in assay [7]; 10.9 µM (inactive) in assay [16]; 16.9 µM (inactive) in assay [8]; 11.8 µM (inactive) in [9]; 14 µM (inactive) in assay [17]. The GI50 in [18] is 20.5 µM (inactive); in assay [10] it was 10.3 µM (inactive); in [12], 10.4 µM (inactive); in [19] it was > 31.6 µM (inactive); in [13], 11.9 µM (inactive); in [20], 15.3 µM (inactive). Besides, the GI50 in [14] is > 31.6 µM (inactive).
For the molecule `CCOC(=O)CC(=O)C(=O)NN=C1NCCCN1`, the GI50 in [1], in assay [2], in assay [3], in assay [15], in assay [4] and in [5] was > 100 µM (inactive) in each case. For the same molecule, the GI50 in assay [6], in assay [7], in assay [16], in assay [8], in assay [9] and in assay [17] was > 100 µM (inactive) throughout. The GI50 in assay [18], in [10], in assay [12], in assay [19], in assay [13] and in assay [20] was > 100 µM (inactive) throughout. Also, the GI50 in assay [14] is > 100 µM (inactive).
`Nc1nc(NCc2ccccc2)cc(NCc2ccccc2)n1`: the GI50 was 6.31 µM (inactive) in assay [1]; 4.23 µM (inactive) in [2]; 5.14 µM (inactive) in assay [3]; 8.95 µM (inactive) in assay [15]; 3.06 µM (inactive) in [4]; 5 µM (inactive) in assay [5]. The GI50 in assay [6] is 4 µM (inactive); in assay [7], 3.45 µM (inactive); in [16], 4.48 µM (inactive); in assay [8], 3.45 µM (inactive); in [9], 4.73 µM (inactive); in assay [17], 2.72 µM (inactive). Further, the GI50 in assay [18] is 4.57 µM (inactive); in [10], 37.8 µM (inactive); in assay [12], 3.23 µM (inactive); in [19] it was 12.8 µM (inactive); in assay [13] it was 4.11 µM (inactive); in [20] it was 7.55 µM (inactive). The GI50 in assay [14] is 16.9 µM (inactive).
`COc1ccc(C2=C(Cl)c3cc(OC)c(OC)cc3C2Cl)cc1OC` (centres undefined): the GI50 in assay [1] was 14.2 µM (inactive); in assay [2], 14.9 µM (inactive); in assay [3], 15.4 µM (inactive); in [4], 10.2 µM (inactive); in assay [5], 15.9 µM (inactive); in assay [8], 15.2 µM (inactive). Also, the GI50 in assay [9] is 16.5 µM (inactive); in [18], 17.9 µM (inactive); in [10] it was 13.7 µM (inactive); in assay [11], 17.3 µM (inactive); in [12], 13.6 µM (inactive); in [19], 16.5 µM (inactive). For the same molecule, the GI50 in assay [13] was 15.4 µM (inactive); in assay [14] it was 16.3 µM (inactive).
In the case of `Cc1nc2sc(C(=O)c3ccc(Cl)cc3)c(N)c2c(-c2ccccc2Cl)c1C(=O)Nc1ccccc1`, the GI50 in assay [1] is 14.7 µM (inactive); in assay [2], 12.2 µM (inactive); in assay [3] it was 7.08 µM (inactive); in [15] it was 23.6 µM (inactive); in assay [4], 23.3 µM (inactive); in [5], 16.6 µM (inactive). For the same molecule, the GI50 in [6] is 19.3 µM (inactive); in assay [7], 14.7 µM (inactive); in [16], 2.93 µM (inactive); in assay [8] it was 6.44 µM (inactive); in assay [9], 9.02 µM (inactive); in assay [17] it was 18.1 µM (inactive). Besides, the GI50 in assay [18] is 9.42 µM (inactive); in assay [10], 11.2 µM (inactive); in assay [12], 11.4 µM (inactive); in assay [19], 15.8 µM (inactive); in [13], 13.4 µM (inactive); in [20], 20.2 µM (inactive). The GI50 in assay [14] is 16 µM (inactive).

Values taken from ChEMBL document CHEMBL1201862, “PubChem BioAssay data set” (2004).
